In paper PMC6423499, “SPR-Measured Dissociation Kinetics of PROTAC Ternary Complexes Influence Target Degradation Rate” (ACS Chemical Biology, 2019):
Where two headings read alike, the source gives them in different places. Marks after values point to notes of the source that are not given here.

Columns and labels:
VHL [1] = biological target: T1, VHL (Homo sapiens, UniProt P40337); experiment: SPR binary binding of PROTAC to immobilized VHL; conditions: binary (PROTAC alone), 285.15 K
T1 construct: VHL (54-213); His6 with TEV cleavage site (N, cleaved yes); made in house; host or cells: E. coli BL21(DE3)

VHL + Brd4^BD2 [2] = biological target: T2, VHL + Brd4^BD2 (Homo sapiens, UniProt O60885+P40337); experiment: SPR ternary binding of PROTAC:Brd4^BD2 complex to immobilized VHL; conditions: for ΔΔG (ΔG^ternary – ΔG^binary) / α (cooperativity, KD^binary/KD^ternary): SPR; for Kd / koff / kon / t1/2 (dissociative half-life, ln2/koff): ternary (+ Brd4^BD2), 298.15 K; for dissociation kinetics faster than the VHL/MZ1/Brd4^BD2 complex: ternary complex with Brd4^BD2
T2 construct: VHL (54-213); Brd4BD2 (333-460); His6 with TEV cleavage site (N, cleaved yes); made in house; host or cells: E. coli BL21(DE3) (VCB)

VHL [3] = conditions: binary, ITC at 298.15 K, cited from earlier work
VHL + Brd4^BD2 [4] = conditions: cited from earlier work; for Kd: ternary + Brd4^BD2, ITC at 298.15 K; for ΔΔG (ITC) / α (ITC): ternary + Brd4^BD2, ITC
Brd4^BD2 = Brd4^BD2 (Homo sapiens, UniProt O60885); experiment: Reversed-format SPR, PROTAC binary binding to immobilized Brd4^BD2; conditions: qualitative, Figures S4 and S6
VHL + Brd2^BD1 [5] = biological target: T3, VHL + Brd2^BD1 (Homo sapiens, UniProt P25440+P40337); experiment: SPR ternary binding of PROTAC:Brd2^BD1 complex to immobilized VHL
T3 construct: VHL (54-213); Brd2BD1 (71-194); His6 with TEV cleavage site (N, cleaved yes); made in house; host or cells: E. coli BL21(DE3) (VCB)

VHL + Brd3^BD1 [6] = biological target: T4, VHL + Brd3^BD1 (Homo sapiens, UniProt P40337+Q15059); experiment: SPR ternary binding of PROTAC:Brd3^BD1 complex to immobilized VHL
T4 construct: VHL (54-213); Brd3BD1 (24-144); His6 with TEV cleavage site (N, cleaved yes); made in house; host or cells: E. coli BL21(DE3) (VCB)

VHL + Brd4^BD1 [7] = biological target: T5, VHL + Brd4^BD1 (Homo sapiens, UniProt O60885+P40337); experiment: SPR ternary binding of PROTAC:Brd4^BD1 complex to immobilized VHL
T5 construct: VHL (54-213); Brd4BD1 (44-168); His6 with TEV cleavage site (N, cleaved yes); made in house; host or cells: E. coli BL21(DE3) (VCB)

VHL + Brd2^BD2 [8] = biological target: T6, VHL + Brd2^BD2 (Homo sapiens, UniProt P25440+P40337); experiment: SPR ternary binding of PROTAC:Brd2^BD2 complex to immobilized VHL
T6 construct: VHL (54-213); Brd2BD2 (344-455); His6 with TEV cleavage site (N, cleaved yes); made in house; host or cells: E. coli BL21(DE3) (VCB)

VHL + Brd3^BD2 [9] = biological target: T7, VHL + Brd3^BD2 (Homo sapiens, UniProt P40337+Q15059); experiment: SPR ternary binding of PROTAC:Brd3^BD2 complex to immobilized VHL
T7 construct: VHL (54-213); Brd3BD2 (306-416); His6 with TEV cleavage site (N, cleaved yes); made in house; host or cells: E. coli BL21(DE3) (VCB)

VHL + Brd2BD2G382E = biological target: T8, VHL + Brd2BD2G382E (Homo sapiens, UniProt P25440+P40337, G382E); experiment: SPR ternary binding of PROTAC:Brd2^BD2 G382E point mutant complex to immobilized VHL
T8 construct: VHL (54-213); Brd2BD2 (344-455); His6 with TEV cleavage site (N, cleaved yes); made in house; host or cells: E. coli BL21(DE3) (VCB)

VHL + Brd3BD2E344G = biological target: T9, VHL + Brd3BD2E344G (Homo sapiens, UniProt P40337+Q15059, E344G); experiment: SPR ternary binding of PROTAC:Brd3^BD2 E344G point mutant complex to immobilized VHL
T9 construct: VHL (54-213); Brd3BD2 (306-416); His6 with TEV cleavage site (N, cleaved yes); made in house; host or cells: E. coli BL21(DE3) (VCB)

VHL + Brd4BD2G386E = biological target: T10, VHL + Brd4BD2G386E (Homo sapiens, UniProt O60885+P40337, G386E); experiment: SPR ternary binding of PROTAC:Brd4^BD2 G386E point mutant complex to immobilized VHL
T10 construct: VHL (54-213); Brd4BD2 (333-460); His6 with TEV cleavage site (N, cleaved yes); made in house; host or cells: E. coli BL21(DE3) (VCB)

VHL + Brd2^BD1 [10] = system: VHL + Brd2^BD1; set-up: method as in PMID 28288108; conditions: ternary + Brd2^BD1, ITC, ref [2]; cited from earlier work
VHL + Brd3^BD1 [11] = system: VHL + Brd3^BD1; set-up: method as in PMID 28288108; conditions: ternary + Brd3^BD1, ITC, ref [2]; cited from earlier work
VHL + Brd4^BD1 [12] = system: VHL + Brd4^BD1; set-up: method as in PMID 28288108; conditions: ternary + Brd4^BD1, ITC, ref [2]; cited from earlier work
VHL + Brd2^BD2 [13] = system: VHL + Brd2^BD2; set-up: method as in PMID 28288108; conditions: ternary + Brd2^BD2, ITC, ref [2]; cited from earlier work
VHL + Brd3^BD2 [14] = system: VHL + Brd3^BD2; set-up: method as in PMID 28288108; conditions: ternary + Brd3^BD2, ITC, ref [2]; cited from earlier work
[15] = steady-state affinity fit (SSA)
[16] = ternary + Brd4^BD2, kinetic fit
[17] = ternary + Brd4^BD2, steady-state affinity fit (SSA)

| Kd (VHL [1]; multicycle, kinetic fit) [nM] | Kd (VHL [1]; [15]) [nM] | ΔΔG (ΔG^ternary – ΔG^binary) (VHL + Brd4^BD2 [2]; [16]) | α (cooperativity, KD^binary/KD^ternary) (VHL + Brd4^BD2 [2]; [16]) | ΔΔG (ΔG^ternary – ΔG^binary) (VHL + Brd4^BD2 [2]; [17]) | α (cooperativity, KD^binary/KD^ternary) (VHL + Brd4^BD2 [2]; [17]) | Kd (VHL + Brd4^BD2 [2]; single-cycle, kinetic fit) [nM] | koff (VHL + Brd4^BD2 [2]; single-cycle, kinetic fit) [s⁻¹] | kon (VHL + Brd4^BD2 [2]; single-cycle, kinetic fit) [M^–1 s^–1 × 10^5] | t1/2 (dissociative half-life, ln2/koff) (VHL + Brd4^BD2 [2]; single-cycle, kinetic fit) [s] | Kd (VHL + Brd4^BD2 [2]; [15]) [nM] | dissociation kinetics faster than the VHL/MZ1/Brd4^BD2 complex (VHL + Brd4^BD2 [2]) [fold] | binary target affinity (for Brd4) (Brd4^BD2) | SMILES | Kd (VHL [3]; ref [10]) [nM] | Kd (VHL + Brd4^BD2 [4]; ref [10]) [nM] | ΔΔG (ITC) (VHL + Brd4^BD2 [4]; ref [10]) | α (ITC) (VHL + Brd4^BD2 [4]; ref [10]) | further results |
| --- | --- | --- | --- | --- | --- | --- | --- | --- | --- | --- | --- | --- | --- | --- | --- | --- | --- | --- |
| 69 | 188 | +0.7 kcal/mol | 0.4 | +0.5 kcal/mol | 0.5 | 185 | 0.47 | 27 | 1 | 134 | > 80 | high | CC(=O)N1c2ccc(-c3ccc(C(=O)NCCOCCOCCOCCOCC(=O)N[C@H](C(=O)N4C[C@H](O)C[C@H]4C(=O)NCc4ccc(-c5scnc5C)cc4)C(C)(C)C)cc3)cc2[C@H](Nc2ccc(Cl)cc2)C[C@@H]1C [MZP55] | 109 | 183 | +0.3 ^e kcal/mol | 0.6 ^e | koff (VHL [1]; multicycle, kinetic fit): 0.015 s⁻¹; kon (VHL [1]; multicycle, kinetic fit): 2.7 M^–1 s^–1 × 10^5; t1/2 (dissociative half-life, ln2/koff) (VHL [1]; multicycle, kinetic fit): 48 s; ΔΔG (ITC) (VHL + Brd4^BD2 [4]; ref [10], listed as MZP 55): +0.3 kcal/mol; α (ITC) (VHL + Brd4^BD2 [4]; ref [10], listed as MZP 55): 0.6 |
| 110 | – | – | 4.7 | – | – | 24 | – | – | – | – | – | weaker | CC(=O)N[C@H](C(=O)N1C[C@H](O)C[C@H]1C(=O)NCc1ccc(-c2scnc2C)cc1)C(C)(C)SCCCCCCNC(=O)C[C@@H]1N=C(c2ccc(Cl)cc2)c2c(sc(C)c2C)-n2c(C)nnc21 [AT1] | – | – | – | – | ΔΔG (ΔG^ternary – ΔG^binary) (VHL + Brd2^BD1 [5]): +0.9 kcal/mol; α (cooperativity, KD^binary/KD^ternary) (VHL + Brd2^BD1 [5]): 0.3; ΔΔG (ΔG^ternary – ΔG^binary) (VHL + Brd3^BD1 [6]): +0.2 kcal/mol; α (cooperativity, KD^binary/KD^ternary) (VHL + Brd3^BD1 [6]): 0.8; ΔΔG (ΔG^ternary – ΔG^binary) (VHL + Brd4^BD1 [7]): +1.1 kcal/mol; α (cooperativity, KD^binary/KD^ternary) (VHL + Brd4^BD1 [7]): 0.2; α (cooperativity, KD^binary/KD^ternary) (VHL + Brd2^BD2 [8]; SPR, ternary + Brd2^BD2): 4.1; Kd (VHL + Brd2^BD2 [8]; ternary (+ Brd2^BD2), 298.15 K, single-cycle, kinetic fit): 27 nM; ΔΔG (ΔG^ternary – ΔG^binary) (VHL + Brd3^BD2 [9]): +0.4 kcal/mol; α (cooperativity, KD^binary/KD^ternary) (VHL + Brd3^BD2 [9]): 0.7; ΔΔG (ΔG^ternary – ΔG^binary) (VHL + Brd2BD2G382E): +0.3 kcal/mol; α (cooperativity, KD^binary/KD^ternary) (VHL + Brd2BD2G382E): 0.7; α (cooperativity, KD^binary/KD^ternary) (VHL + Brd3BD2E344G): 3.4; ΔΔG (ΔG^ternary – ΔG^binary) (VHL + Brd4BD2G386E): +0.2 kcal/mol; α (cooperativity, KD^binary/KD^ternary) (VHL + Brd4BD2G386E): 0.8; Kd (VHL [3]; ref [2]): 335 nM; Kd (VHL + Brd4^BD2 [4]; ref [2]): 46 nM |
| – | 104 | +1.0 kcal/mol | 0.2 | +0.6 kcal/mol | 0.4 | 465 | 1 | 30 | 1 | 248 | > 80 | high | CC(=O)N1c2ccc(-c3ccc(C(=O)NCCOCCOCC(=O)N[C@H](C(=O)N4C[C@H](O)C[C@H]4C(=O)NCc4ccc(-c5scnc5C)cc4)C(C)(C)C)cc3)cc2[C@H](Nc2ccc(Cl)cc2)C[C@@H]1C [MZP61] | 116 | 781 | +1.1 ^e kcal/mol | 0.1 ^e | ΔΔG (ITC) (VHL + Brd4^BD2 [4]; ref [10], listed as MZP 61): +1.1 kcal/mol |
| – | – | – | – | – | – | – | – | – | – | – | – | – | Cc1ncsc1-c1ccc(CNC(=O)[C@@H]2C[C@@H](O)CN2C(=O)[C@@H](NC(=O)COCCOCCOCCNC(=O)C[C@@H]2N=C(c3ccc(Cl)cc3)c3c(sc(C)c3C)-n3c(C)nnc32)C(C)(C)C)cc1 [MZ1] | – | – | – | – | ΔΔG (ITC) (VHL + Brd2^BD1 [10]): –0.6 ^d kcal/mol; α (ITC) (VHL + Brd2^BD1 [10]): 2.9 ^d; ΔΔG (ITC) (VHL + Brd3^BD1 [11]): –0.8 ^d kcal/mol; α (ITC) (VHL + Brd3^BD1 [11]): 3.5 ^d; ΔΔG (ITC) (VHL + Brd4^BD1 [12]): –0.5 ^d kcal/mol; α (ITC) (VHL + Brd4^BD1 [12]): 2.3 ^d; ΔΔG (ITC) (VHL + Brd2^BD2 [13]): –0.5 ^d kcal/mol; α (ITC) (VHL + Brd2^BD2 [13]): 2.3 ^d; ΔΔG (ITC) (VHL + Brd3^BD2 [14]): –1.5 ^d kcal/mol; α (ITC) (VHL + Brd3^BD2 [14]): 10.7 ^d |
